From PMC6853638, “TMC1 is an essential component of a leak channel that modulates tonotopy and excitability of auditory hair cells in mice” (eLife, 2019)
Substitutions are numbered along the chain they refer to. Several values for one entry are separate records, joined by “and”; a condition that tells them apart may be missing. Identical values can stand only once.

Key:
Format in all cases: cell-based
[1] = molecular target: T1, cysteine-substituted TMC1 constructs (Mus musculus, UniProt Q8R4P5, M412C); assay: Background current before and after MTSET treatment in Tmc1-knockout OHCs expressing cysteine-substituted TMC1; settings: Tmc1-knockout OHCs expressing TMC1-M412C, individual cells
T1 construct: control full-length TMC1 (TMC1_WT); expressed in transfected cells; host or cells: Tmc1-knockout mouse OHCs, injectoporation
T1 sequence (Q8R4P5 1-757 M412C): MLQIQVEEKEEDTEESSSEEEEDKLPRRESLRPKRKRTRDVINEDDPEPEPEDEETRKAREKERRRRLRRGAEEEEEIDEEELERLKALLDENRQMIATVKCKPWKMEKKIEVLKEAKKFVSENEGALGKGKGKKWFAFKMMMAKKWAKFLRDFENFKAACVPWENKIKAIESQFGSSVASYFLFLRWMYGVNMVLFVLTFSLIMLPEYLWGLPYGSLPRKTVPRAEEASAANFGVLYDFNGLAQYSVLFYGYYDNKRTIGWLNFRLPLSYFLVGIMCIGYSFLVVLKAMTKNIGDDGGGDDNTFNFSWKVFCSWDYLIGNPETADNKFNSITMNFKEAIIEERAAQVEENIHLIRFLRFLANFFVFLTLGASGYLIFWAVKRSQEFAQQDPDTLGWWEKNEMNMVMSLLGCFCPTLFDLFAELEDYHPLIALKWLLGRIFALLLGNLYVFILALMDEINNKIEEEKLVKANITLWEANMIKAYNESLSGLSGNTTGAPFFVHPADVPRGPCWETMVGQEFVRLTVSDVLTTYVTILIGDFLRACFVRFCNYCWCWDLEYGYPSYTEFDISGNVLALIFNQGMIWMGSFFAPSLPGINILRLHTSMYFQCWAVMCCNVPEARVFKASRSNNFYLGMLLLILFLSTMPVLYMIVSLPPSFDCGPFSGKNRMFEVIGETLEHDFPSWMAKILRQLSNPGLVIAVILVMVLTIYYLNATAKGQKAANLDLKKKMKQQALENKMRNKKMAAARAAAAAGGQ
Experimental: (§1) Mouse Tmc1 and Tmc2 cDNAs were cloned into CMV-Script and pCDNA3.1- vectors, respectively. To obtain the Tmc1-deafness vector and amino-acid-substituted Tmc1 constructs, specific primers were designed and used for PCR (Supplementary File 1). […] In brief, the organ of Corti was isolated from P3 mice and cut into three pieces in Dulbecco’s modified Eagle’s medium/F12 with 1.5 μg/ml ampicillin. For electroporation, a glass pipette (2 μm tip diameter) was used to deliver cDNA plasmids (0.2 μg/μl in 1 × Hanks' balanced salt solution) to hair cells in the sensory epithelium. EGFP was used as an indicator for the selection of transfected hair cells. A series of three pulses at 60 V lasting 15 ms at 1 s intervals was applied to cochlear tissues by an electroporator (ECM Gemini X2, BTX, CA). The cochlear tissues were cultured for 1 day in vitro and then used for electrophysiological recording.
(§2) All experiments were performed at room temperature (20–25°C). Briefly, the basilar membrane with hair cells was acutely dissected from neonatal mice. […] The acutely isolated or cultured basilar membrane was used for electrophysiological recording within 1 h. […] Hair cells were recorded with a patch-clamp amplifier (EPC 10 USB and Patchmaster software, HEKA Elektronik, Lambrecht/Pfalz, Germany).
(§3) The sampling rate was 1 kHz for leak current recording, 50 kHz for the IV protocol and current-clamp recording, and 100 kHz for unitary channel recording. The voltage-clamp used a –70 mV holding potential, and the current-clamp was held at 0 pA. Only recordings with a current baseline <20 pA in NMDG solution were used for statistical analysis.

[2] = molecular target: T2, cysteine-substituted TMC1 constructs (Mus musculus, UniProt Q8R4P5, D528C); assay: as above; settings: Tmc1-knockout OHCs expressing TMC1-D528C, individual cells
T2 construct: control full-length TMC1 (TMC1_WT); expressed in transfected cells; host or cells: Tmc1-knockout mouse OHCs, injectoporation
T2 sequence (Q8R4P5 1-757 D528C): T1 sequence (Q8R4P5 1-757 M412C) with C412M, D528C
Experimental: as §1, §2, §3

[3] = molecular target: T3, TMC1-M412C (Mus musculus, UniProt Q8R4P5, M412C); assay: MET current under MTSET treatment in Tmc1;Tmc2 double-knockout OHCs expressing TMC1-M412C
T3 construct: control full-length TMC1 (TMC1_WT); expressed in transfected cells; host or cells: Tmc1;Tmc2 double-knockout mouse OHCs (P1 + 3 DIV), injectoporation
T3 sequence (Q4KL25 whole entry partner, one chain of several): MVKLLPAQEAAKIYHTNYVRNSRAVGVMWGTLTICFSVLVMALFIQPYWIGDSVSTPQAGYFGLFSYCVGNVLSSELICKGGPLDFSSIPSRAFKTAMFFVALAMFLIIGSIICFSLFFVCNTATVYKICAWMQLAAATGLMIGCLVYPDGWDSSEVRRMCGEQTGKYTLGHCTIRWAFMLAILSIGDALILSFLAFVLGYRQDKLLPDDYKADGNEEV
T3 sequence (Q8K467 29-153 partner, one chain of several): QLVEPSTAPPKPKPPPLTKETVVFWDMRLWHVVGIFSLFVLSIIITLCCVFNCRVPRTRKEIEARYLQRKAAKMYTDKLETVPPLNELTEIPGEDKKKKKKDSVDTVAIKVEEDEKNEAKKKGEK
T3 sequence (Q9Z309 whole entry partner, one chain of several): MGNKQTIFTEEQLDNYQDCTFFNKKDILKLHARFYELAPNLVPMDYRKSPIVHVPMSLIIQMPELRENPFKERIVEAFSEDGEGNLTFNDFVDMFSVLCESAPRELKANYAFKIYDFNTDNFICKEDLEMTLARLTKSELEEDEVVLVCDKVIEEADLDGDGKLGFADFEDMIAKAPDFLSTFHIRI

SMILES: C[N+](C)(C)CCSS(C)(=O)=O.[Br-] [MTSET, 2-(trimethylammonium)ethyl methanethiosulfonate, bromide]
- amplitude of the background current after MTSET treatment [1]: -35.9532 and -37.439 and -48.1972 and -25.6217 and -14.3767 and -67.9843
- amplitude of the background current after MTSET treatment [2]: -23.6585 and -22.824 and -11.63 and -11.1296
- effect on the MET current amplitude [3]: did change the MET current amplitude
